The record followed here is US20190263799A1, “1H-IMIDAZO[4,5-B]PYRIDINYL AND 2-OXO-2,3-DIHYDRO-1H-IMIDAZO[4,5-B]PYRIDINYL HETEROCYCLIC BET BROMODOMAIN INHIBITORS” (ZENITH EPIGENETICS LTD., priority 2015, published 2019).

Where a name gives a salt, the structure may show the parent alone. Read-outs that look alike come from different tables or passages of the source. A value given as a limit tells only on which side of the number the result lay.

For assay [1], the target named is T1, BRD4(1) (Homo sapiens, UniProt O60885).
T1 construct: N-terminally His-tagged bromodomains (BRD4(1) at 20 nM and BRD4(2) at 100 nM); made in house; host or cells: E. coli BL21(DE3)
Description: Inhibition of tetra-acetylated histone H4 binding to individual BET bromodomains (AlphaScreen). Conditions: His-tagged BRD4(1) 20 nM, biotinylated tetra-acetylated histone H4 peptide, 30 min incubation; read-out: FRET activity BRD4(1). How it is done:
Proteins were cloned and overexpressed with a N-terminal 6×His tag, then purified by nickel affinity followed by size exclusion chromatography. Briefly, E. coli BL21(DE3) cells were transformed with a recombinant expression vector encoding N-terminally Nickel affinity tagged bromodomains from Brd2, Brd3, Brd4. Cell cultures were incubated at 37° C. with shaking to the appropriate density and induced overnight with IPTG. The supernatant of lysed cells was loaded onto Ni-IDA column for purification. Eluted protein was pooled, concentrated and further purified by size exclusion chromatography. Fractions representing monomeric protein were pooled, concentrated, aliquoted, and frozen at −80° C. for use in subsequent experiments.
Binding of tetra-acetylated histone H4 peptide (Millipore) and BET bromodomains was confirmed by Amplified Luminescent Proximity Homogenous Assay (AlphaScreen). N-terminally His-tagged bromodomains (BRD4(1) at 20 nM and BRD4(2) at 100 nM) and biotinylated tetra-acetylated histone H4 (10-25 nM) were incubated in the presence of nickel chelate acceptor beads and streptavidin donor beads (PerkinAlmer, 6760000K) added to a final concentration of 2 μg/mL under green light in a white 96 well microtiter plate (Greiner). For inhibition assays, serially diluted compounds were added to the reaction mixtures in a 0.1% final concentrations of DMSO. Final buffer concentrations were 50 mM HEPES, 100 mM NaCl and 0.1% BSA buffer, pH 7.4 and optimized to 30 min incubation time. Assay plates were read at 570 nm on a Synergy H4 Plate Reader (Biotek). IC50 values were determined from a dose response curve.
For orientation: Bead proximity is the source of the signal in Alpha formats.

The subject of assay [2] is MV4-11 cells. The assay can be described thus: Inhibition of cell proliferation in cancer cell lines (MV4-11, CellTiter Aqueous One). Conditions: Homo sapiens, read-out: Proliferation activity. The assay is classed as cell-based. On the procedure: MV4-11 cells (CRL-9591) were plated at a density of 5×10^4 cells per well in 96 well flat bottom plates and treated with increasing concentrations of test compound or DMSO (0.1%) in IMDM media containing 10% FBS and penicillin/streptomycin. Triplicate wells were used for each concentration and a well containing only media was used as a control. Plates were incubated at 37° C., 5% CO2 for 72 h before adding 20 μL of the CellTiter Aqueous One Solution (Promega) to each well and incubating at 37° C., 5% CO2 for an additional 3-4 h. The absorbance was read at 490 nm in a spectrophotometer and the percentage of cell titer relative to DMSO-treated cells was calculated after correcting for background by subtracting the blank well's signal. IC50 values were calculated using the GraphPad Prism software.

In assay [3] the test system is cMYC. Description: Inhibition of cMYC expression in cancer cell lines (MV4-11, real-time PCR). Particulars: Homo sapiens, read-out: Myc activity. It is filed as cell-based. On the procedure: MV4-11 cells (CRL-9591) were plated at a density of 2.5×10^4 cells per well in 96 well U-bottom plates and treated with increasing concentrations of test compound or DMSO (0.1%) in IMDM media containing 10% FBS and penicillin/streptomycin, and incubated for 3 h at 37° C. Triplicate wells were used for each concentration. Cells were pelleted by centrifugation and harvested using the mRNA Catcher PLUS kit according to manufacturer's instructions. The eluted mRNA isolated was then used in a one-step quantitative real-time PCR reaction, using components of the RNA UltraSense™ One-Step Kit (Life Technologies) together with Applied Biosystems TaqMan® primer-probes for cMYC and Cyclophilin. Real-time PCR plates were run on a ViiA™7 real time PCR machine (Applied Biosystems), data were analyzed, normalizing the Ct values for cMYC to an internal control, prior to determining the fold expression of each sample, relative to the control.

Setting [4] is: MV4-11 cells, 3 h incubation, cMYC mRNA.

Regarding `CC(=O)Nc1cnc2nc(C)n(Cc3ccccc3)c2c1` [Example 1, N-(1-Benzyl-2-methyl-1H-imidazo[4,5-b]pyridin-6-yl)acetamide], in assay [1], the IC50 lay within 3 to 30 µM.

`CC(=O)N(C)c1cnc2nc(C)n(Cc3ccccc3)c2c1` [Example 3, N-(1-Benzyl-2-methyl-1H-imidazo[4,5-b]pyridin-6-yl)—N-methylacetamide]: the IC50 is 3 to 30 µM in assay [2] (MV4-11, 72 h); no more than 0.3 µM in assay [1]; 3 to 30 µM in assay [3] (MV4-11, 3 h).

As to `C=CC(=O)N(C)c1cnc2nc(C)n(Cc3ccccc3)c2c1` [Example 4, N-(1-Benzyl-2-methyl-1H-imidazo[4,5-b]pyridin-6-yl)-N-methylacrylamide], the IC50 was 3 to 30 µM in assay [2] (MV4-11 cells, 72 h incubation); no more than 0.3 µM in assay [1]; 0.3 to 3 µM in assay [3] (setting [4]).

Regarding `Cc1nc2ncc(N(C)C(=O)CCCl)cc2n1Cc1ccccc1` [Example 5, N-(1-Benzyl-2-methyl-1H-imidazo[4,5-b]pyridin-6-yl)-3-chloro-N-methylpropanamide], the IC50 fell in the range of 3 to 30 µM in assay [2] (MV4-11 cells, 72 h incubation); 0.3 to 3 µM in assay [1]; 3 to 30 µM in assay [3] (setting [4]).

In the case of `CCN(C(C)=O)c1cnc2nc(C)n(Cc3ccccc3)c2c1` [Example 6, N-(1-Benzyl-2-methyl-1H-imidazo[4,5-b]pyridin-6-yl)-N-ethylacetamide], the IC50 in assay [1] fell in the range of 0.3 to 3 µM; in assay [3] (MV4-11, 3 h), 3 to 30 µM.

As for `C=CC(=O)N(CC)c1cnc2nc(C)n(Cc3ccccc3)c2c1` [Example 7, N-(1-Benzyl-2-methyl-1H-imidazo[4,5-b]pyridin-6-yl)-N-ethylacrylamide], in assay [1], the IC50 lay within 0.3 to 3 µM.

On to `CN(C(=O)CCCl)c1cnc2c(c1)n(Cc1ccccc1)c(=O)n2C` [Example 10, N-(1-Benzyl-3-methyl-2-oxo-2,3-dihydro-1H-imidazo[4,5-b]pyridin-6-yl)-3-chloro-N-methylpropanamide], for which the IC50 in assay [2] (MV4-11 cells, 72 h incubation) was in the range of 3 to 30 µM; in assay [1], 3 to 30 µM.

Turning to `CC(=O)N(C)c1cnc2c(c1)n(Cc1ccccc1)c(=O)n2C` [Example 11, N-(1-Benzyl-3-methyl-2-oxo-2,3-dihydro-1H-imidazo[4,5-b]pyridin-6-yl)-N-methylacetamide], the IC50 in assay [2] (MV4-11 cells, 72 h incubation) is 3 to 30 µM; in assay [1] it was no more than 0.3 µM; in assay [3] (setting [4]), 3 to 30 µM.

With `C=CC(=O)N(C)c1cnc2c(c1)n(Cc1ccccc1)c(=O)n2C` [Example 12, N-(1-Benzyl-3-methyl-2-oxo-2,3-dihydro-1H-imidazo[4,5-b]pyridin-6-yl)-N-methylacrylamide], the IC50 in assay [2] (MV4-11 cells, 72 h incubation) is 3 to 30 µM; in assay [1] it was no more than 0.3 µM; in assay [3] (setting [4]), 3 to 30 µM.

Turning to `CCN(C(C)=O)c1cnc2c(c1)n(Cc1ccccc1)c(=O)n2C` [Example 13, N-(1-Benzyl-3-methyl-2-oxo-2,3-dihydro-1H-imidazo[4,5-b]pyridin-6-yl)-N-ethylacetamide], the IC50 in assay [1] is 0.3 to 3 µM.

`C=CC(=O)N(CC)c1cnc2c(c1)n(Cc1ccccc1)c(=O)n2C` [Example 14, N-(1-Benzyl-3-methyl-2-oxo-2,3-dihydro-1H-imidazo[4,5-b]pyridin-6-yl)-N-ethylacrylamide]: the IC50 in assay [1] lay within 0.3 to 3 µM.

`C=CC(=O)N(C)c1cnc2nc(N3CCOCC3)n(Cc3ccccc3)c2c1` [Example 16, N-(1-Benzyl-2-morpholino-1H-imidazo[4,5-b]pyridin-6-yl)-N-methylacrylamide]: the IC50 in assay [2] (MV4-11 cells, 72 h incubation) was 3 to 30 µM; in assay [1], no more than 0.3 µM; in assay [3] (setting [4]) it was 3 to 30 µM.

As to `C=CC(=O)N(C)c1cnc2nc(N3CCC3)n(Cc3ccccc3)c2c1` [Example 17, N-(2-(Azetidin-1-yl)-1-benzyl-1H-imidazo[4,5-b]pyridin-6-yl)-N-methylacrylamide], the IC50 in assay [2] (MV4-11, 72 h) is 0.3 to 3 µM; in assay [1], no more than 0.3 µM; in assay [3] (MV4-11, 3 h), 0.3 to 3 µM.

Take `C=CC(=O)N(C)c1cnc2nc(N(C)C)n(Cc3ccccc3)c2c1` [Example 19, N-(1-Benzyl-2-(dimethylamino)-1H-imidazo[4,5-b]pyridin-6-yl)-N-methylacrylamide]: the IC50 in assay [2] (MV4-11 cells, 72 h incubation) is 3 to 30 µM; in assay [1] it was no more than 0.3 µM; in assay [3] (setting [4]) it was 0.3 to 3 µM.

As to `C=CC(=O)N(C)c1cnc2nc(NC3CCOCC3)n(Cc3ccccc3)c2c1` [Example 20, N-(1-Benzyl-2-((tetrahydro-2H-pyran-4-yl)amino)-1H-imidazo[4,5-b]pyridin-6-yl)-N-methylacrylamide], the IC50 is 0.3 to 3 µM in assay [2] (MV4-11 cells, 72 h incubation); no more than 0.3 µM in assay [1]; 0.3 to 3 µM in assay [3] (setting [4]).

With `C=CC(=O)N(C)c1cnc2nc(NC)n(Cc3ccccc3)c2c1` [Example 21, N-(1-Benzyl-2-(methylamino)-1H-imidazo[4,5-b]pyridin-6-yl)-N-methylacrylamide], the IC50 in assay [2] (MV4-11 cells, 72 h incubation) was 0.3 to 3 µM; in assay [1], no more than 0.3 µM; in assay [3] (setting [4]) it was 0.3 to 3 µM.

Consider `C=CC(=O)N(C)c1cnc2nc(N3CC=CC3)n(Cc3ccccc3)c2c1` [Example 22, N-(1-Benzyl-2-(2,5-dihydro-1H-pyrrol-1-yl)-1H-imidazo[4,5-b]pyridin-6-yl)-N-methylacrylamide hydrochloride], for which the IC50 was 0.3 to 3 µM in assay [2] (MV4-11 cells, 72 h incubation); no more than 0.3 µM in assay [1]; 0.3 to 3 µM in assay [3] (setting [4]).

Turning to `C=CC(=O)N(C)c1cnc2nc(N3CCCCC3)n(Cc3ccccc3)c2c1` [Example 23, N-(1-Benzyl-2-(piperidin-1-yl)-1H-imidazo[4,5-b]pyridin-6-yl)-N methylacrylamide], the IC50 in assay [2] (MV4-11 cells, 72 h incubation) was 3 to 30 µM; in assay [1], 0.3 to 3 µM; in assay [3] (setting [4]), 0.3 to 3 µM.

Take `C=CC(=O)N(C)c1cnc2nc(N3C4CCC3CC(O)C4)n(Cc3ccccc3)c2c1` (centres unmarked) [Example 24, N-(1-Benzyl-2-(3-hydroxy-8-azabicyclo[3.2.1]octan-8-yl)-1H-imidazo[4,5-b]pyridin-6-yl)-N-methylacrylamide]: the IC50 in assay [2] (MV4-11, 72 h) was 3 to 30 µM; in assay [1], no more than 0.3 µM; in assay [3] (MV4-11, 3 h), 0.3 to 3 µM.

Consider `C=CC(=O)N(C)c1cnc2nc(N3CC[C@H](CO)C3)n(Cc3ccccc3)c2c1` [Example 25, (S)—N-(1-Benzyl-2-(3-(hydroxymethyl)pyrrolidin-1-yl)-1H-imidazo[4,5-b]pyridin-6-yl)-N-methylacrylamide], for which the IC50 in assay [2] (MV4-11 cells, 72 h incubation) was 0.3 to 3 µM; in assay [1] it was no more than 0.3 µM; in assay [3] (setting [4]), less than 0.3 µM.

As for `C=CC(=O)N(C)c1cnc2nc(N3CC(CO)C3)n(Cc3ccccc3)c2c1` [Example 26, N-(1-Benzyl-2-(3-(hydroxymethyl)azetidin-1-yl)-1H-imidazo[4,5-b]pyridin-6-yl)-N-methylacrylamide], the IC50 was 3 to 30 µM in assay [2] (MV4-11 cells, 72 h incubation); no more than 0.3 µM in assay [1]; 0.3 to 3 µM in assay [3] (setting [4]).

For `C=CC(=O)N(C)c1cnc2nc(N3C[C@H]4CN(C)C[C@H]4C3)n(Cc3ccccc3)c2c1` [Example 27, N-(1-Benzyl-2-((3aR,6aS)-5-methylhexahydropyrrolo[3,4-c]pyrrol-2(1H)-yl)-1H-imidazo[4,5-b]pyridin-6-yl)-N-methylacrylamide], the IC50 in assay [2] (MV4-11 cells, 72 h incubation) was 3 to 30 µM; in assay [1] it was 0.3 to 3 µM; in assay [3] (setting [4]) it was 3 to 30 µM.

Consider `CCC(=O)N(C)c1cnc2nc(N3CCCC3)n(Cc3ccccc3)c2c1` [Example 28, N-(1-Benzyl-2-(pyrrolidin-1-yl)-1H-imidazo[4,5-b]pyridin-6-yl)-N-methylpropionamide], for which the IC50 was 0.3 to 3 µM in assay [2] (MV4-11 cells, 72 h incubation); no more than 0.3 µM in assay [1]; 0.3 to 3 µM in assay [3] (setting [4]).

For `CN(C(=O)C1CC1)c1cnc2nc(N3CCCC3)n(Cc3ccccc3)c2c1` [Example 29, N-(1-Benzyl-2-(pyrrolidin-1-yl)-1H-imidazo[4,5-b]pyridin-6-yl)-N-methylcyclopropanecarboxamide], the IC50 was 0.3 to 3 µM in assay [2] (MV4-11 cells, 72 h incubation); no more than 0.3 µM in assay [1]; 0.3 to 3 µM in assay [3] (setting [4]).
